Key:
hSERT = target: T1, hSERT (Homo sapiens, UniProt P31645); assay: hSERT radioligand binding assay (CHO cells, [3H]imipramine)
T1 construct: expressed in transfected cells
Method: Binding affinity to the hDAT, hNET and hSERT expressed in CHO cells was evaluated in in vitro radioligand binding assays. Binding assays were conducted according to the standard and validated protocols under conditions defined by the contractor (Eurofins Cerep SA, Celle-’Evescault, France; study number 100054410). Antagonist radioligand assays were conducted for the human norepinephrine, the human dopamine, and the serotonin transporters (using CHO cells), using [^3H]nisoxetine (1 nM), [^3H]BTCP (4 nM), and [^3H]imipramine (2 nM) as ligands and desipramine (1 µM), BTCP (10 µM), and imipramine (10 µM) as non-specific agents, respectively (with scintillation counting as detection method).

[1] = tested on: adult male Sprague Dawley rats; assay: PROG/chow feeding choice task; format: in vivo, rat
Method: Pharmacological agents: (S)-MK-26 was obtained from the Lubec Laboratory (University of Vienna, Austria) and dissolved in dimethyl sulfoxide (DMSO) (10%), Tween 80 (15%), and 0.9% saline (75%). The DMSO/Tween 80/saline mixture was administered as the vehicle control. The dose range was selected as 3.75–45.0 mg/kg based on its DAT affinity and pilot studies. It was administered 30 min before testing. TBZ (9,10-dimethoxy3-(2-methylpropyl)-1,3,4,6,7, 11b hexahydrobenzo[a]quinolizin2-one) was obtained from Tocris Bioscience (Ellisville, MO) and was dissolved in DMSO (20%) and 0.9% saline (80%) and was titrated with 1.0 N HCl until the drug was dissolved at a pH of 4.0–4.5. The DMSO/saline solution with equal amounts of HCl was administered as the vehicle control. The selected dose was 1.0mg/kg based on the previous research from our laboratory. It was administered 120 min prior to testing. […]
Behavioral sessions were conducted in operant chambers (28 × 23 × 23 cm^3; Med Associates, Fairfax, VT) with 30 min sessions 5 days/week. […] The number of lever pressing was recorded and the amount of consumed chow was calculated by weighing the remaining food, including spillage. […]

T1 sequence (P31645 whole entry): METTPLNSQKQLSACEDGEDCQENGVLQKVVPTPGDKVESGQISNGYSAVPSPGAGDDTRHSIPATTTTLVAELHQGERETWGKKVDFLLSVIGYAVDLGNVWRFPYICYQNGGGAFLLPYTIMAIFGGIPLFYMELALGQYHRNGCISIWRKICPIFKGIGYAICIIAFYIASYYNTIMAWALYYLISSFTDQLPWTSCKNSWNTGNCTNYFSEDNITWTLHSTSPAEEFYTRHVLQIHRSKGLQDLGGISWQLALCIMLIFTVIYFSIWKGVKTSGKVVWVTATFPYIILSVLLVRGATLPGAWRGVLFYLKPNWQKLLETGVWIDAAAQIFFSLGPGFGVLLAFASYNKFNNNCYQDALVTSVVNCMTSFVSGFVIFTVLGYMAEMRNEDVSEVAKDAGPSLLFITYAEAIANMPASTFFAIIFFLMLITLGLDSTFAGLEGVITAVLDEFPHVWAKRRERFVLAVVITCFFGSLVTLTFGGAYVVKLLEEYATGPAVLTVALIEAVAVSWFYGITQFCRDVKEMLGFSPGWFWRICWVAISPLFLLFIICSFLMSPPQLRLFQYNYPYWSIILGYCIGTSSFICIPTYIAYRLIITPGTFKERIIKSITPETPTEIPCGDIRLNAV

[O-][S@@+](Cc1cncs1)C(c1cccc(Cl)c1)c1cccc(Cl)c1 [(S)-MK-26, (S)-5-(((B(3-chlorophenyl)methyl)sulphinyl)methyl)thiazole]
binding to SERT (hSERT): trifling bindings
effect on PROG lever presses ([1]; 45.0 mg/kg i.p. alone vs vehicle, p = 0.011): statistically significant difference between the vehicle and the highest dose
effect on chow intake ([1]; 30.0 and 45.0 mg/kg i.p. alone vs vehicle): decreased chow intake

From paper PMC9312958, “A Novel and Selective Dopamine Transporter Inhibitor, (S)-MK-26, Promotes Hippocampal Synaptic Plasticity and Restores Effort-Related Motivational Dysfunctions” (Biomolecules, 2022)
